We go through 28 compounds from patent US11111251B2, “Positive allosteric modulators of the muscarinic acetylcholine receptor M1” (Vanderbilt University, priority 2016, dated 2021).

Read-outs that look alike come from different tables or passages of the source. Where only a bound is given, the exact number is not on record here.

The target of this assay is T1, human mAChR M1 (Homo sapiens, UniProt P11229).
T1 sequence (P11229 1-460): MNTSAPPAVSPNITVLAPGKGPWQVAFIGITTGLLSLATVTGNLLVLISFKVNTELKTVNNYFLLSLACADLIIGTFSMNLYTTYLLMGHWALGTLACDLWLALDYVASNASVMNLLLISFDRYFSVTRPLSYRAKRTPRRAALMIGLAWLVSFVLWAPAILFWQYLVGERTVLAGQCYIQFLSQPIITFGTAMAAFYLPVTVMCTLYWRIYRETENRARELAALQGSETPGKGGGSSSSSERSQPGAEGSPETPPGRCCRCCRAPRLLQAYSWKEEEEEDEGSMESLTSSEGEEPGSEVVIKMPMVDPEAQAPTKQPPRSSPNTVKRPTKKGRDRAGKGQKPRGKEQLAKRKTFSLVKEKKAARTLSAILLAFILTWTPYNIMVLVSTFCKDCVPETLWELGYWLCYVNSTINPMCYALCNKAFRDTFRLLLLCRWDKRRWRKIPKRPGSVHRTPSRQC
Kind of assay: mAChR M1 cell-based functional assay: calcium mobilization, positive allosteric modulator mode (increase in EC20 acetylcholine response). Particulars: for Emax: read-out: Human M1 Emax (%). The method, boiled down:
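Calcium-flux assay in CHO-K1 cells stably expressing human M1, loaded with Fluo-4 AM (50 min, 37 °C) and read at 1 Hz. Compound (11-point, 1:3 series) was added at 4 s, EC20 acetylcholine at 144 s and EC80 at 230 s. PAM activity is the concentration-dependent rise in the EC20 response, fitted with a four-parameter logistic.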
A general note: Calcium assays in cells follow changes in intracellular calcium, usually with a dye or a luminescent sensor.

The mark [1] stands for this setting: Table 2, human M1, read-out: Human M1 EC50.
Setting [2] is: Table 1, mAChR M1 cell-based functional assay, PAM mode, species not given, read-out: EC50.

Take `CC1CC(NC(=O)c2cc(Cc3ccc(-c4ccn(C)n4)cc3)c3sccc3n2)CC(C)O1` (centres unmarked) [Compound 326, N-(2,6-dimethyltetrahydropyran-4-yl)-7-[[4-(1-methylpyrazol-3-yl)phenyl]methyl]thieno[3,2-b]pyridine-5-carboxamide]: the 50% effective concentration (EC50) – broadly, the concentration that produces a half-maximal response – under setting [1] came out at 2840 nM. In addition, for the setting “Table 2, human M1”, the Emax (in general, the maximal effect, on the per cent scale that the assay sets) stood at 83.9%.

With `Cc1ccc(Cc2cc(C(=O)NC3CCCNC3=O)nc3ccsc23)cn1` (centres unmarked) [Compound 66, 7-[(6-methyl-3-pyridyl)methyl]-N-(2-oxo-3-piperidyl)thieno[3,2-b]pyridine-5-carboxamide], the EC50 under setting [1] worked out at 7410 nM. The Emax (Table 2, human M1) turned out to be 93%. Regarding `O=C(NC1CCCNC1=O)c1cc(Cc2ccc(-n3cccn3)cc2)c2sccc2n1` (centres unmarked) [Compound 78, N-(2-oxo-3-piperidyl)-7-[(4-pyrazol-1-ylphenyl)methyl]thieno[3,2-b]pyridine-5-carboxamide], the EC50 under setting [1] was 310 nM. Where the note is “Table 2, human M1”, the Emax was 87.2%. In the same order, the values of `O=C(NC1CCCCNC1=O)c1cc(Cc2ccc(-c3cscn3)cc2)c2sccc2n1` (centres unmarked) [Compound 222, N-(2-oxoazepan-3-yl)-7-[(4-thiazol-4-ylphenyl)methyl]thieno[3,2-b]pyridine-5-carboxamide] are 317 nM and 80.3%. For `Cn1cc(-c2ccc(Cc3cc(C(=O)NC4CC5(COC5)C4)nc4ccsc34)cn2)cn1` [Compound 327, 7-[[6-(1-methylpyrazol-4-yl)-3-pyridyl]methyl]-N-(2-oxaspiro[3.3]heptan-6-yl)thieno[3,2-b]pyridine-5-carboxamide] the same measures were 166 nM and 79.2%.

As for `Cc1nc(-c2ccc(Cc3cc(C(=O)NC4(C)COC4)nc4ccsc34)cc2)cs1` [Compound 177, N-(3-methyloxetan-3-yl)-7-[[4-(2-methylthiazol-4-yl)phenyl]methyl]thieno[3,2-b]pyridine-5-carboxamide], the EC50 under setting [1] is > 10000 nM. Moreover, the Emax (Table 2, human M1) stood at 39.7%.

In the case of `Cc1csc2c(Cc3ccc(-n4cccn4)cc3)cc(C(=O)NCC3CCCCO3)nc12` (centres unmarked) [Compound 320, 3-methyl-7-[(4-pyrazol-1-ylphenyl)methyl]-N-(tetrahydropyran-2-ylmethyl)thieno[3,2-b]pyridine-5-carboxamide], the EC50 under setting [1] turned out to be 3980 nM. For the same compound, the Emax (Table 2, human M1) was 60.7%. In the same order, the values of `CCN1CCC[C@H]1CNC(=O)c1cc(Cc2ccc(-c3ccn(C)n3)nc2)c2sccc2n1` [Compound 428] are 1890 nM and 70.2%. Regarding `Cc1nc(-c2ccc(Cc3cc(C(=O)N[C@@H]4CCCCC[C@H]4O)nc4ccsc34)cc2)co1` [Compound 170, N-[(1R,2R)-2-hydroxycycloheptyl]-7-[[4-(2-methyloxazol-4-yl)phenyl]methyl]thieno[3,2-b]pyridine-5-carboxamide], the EC50 under setting [1] amounted to 150 nM. Besides, where the note is “Table 2, human M1”, the Emax was 82.9%. On to `Cc1nc(-c2ccc(Cc3cc(C(=O)N[C@H]4CCCCC[C@@H]4O)nc4ccsc34)cc2)cs1` [Compound 196, N-[(1S,2S)-2-hydroxycycloheptyl]-7-[[4-(2-methylthiazol-4-yl)phenyl]methyl]thieno[3,2-b]pyridine-5-carboxamide], for which the EC50 under setting [1] came out at 234 nM. Besides, under “Table 2, human M1”, the Emax turned out to be 81.3%. As to `Cn1ccc(-c2ccc(Cc3cc(C(=O)N[C@H]4CCCC[C@@H]4O)nc4ccn(C)c34)cn2)n1` [Compound 512, N-[(1S,2S)-2-hydroxycyclohexyl]-1-methyl-7-[[6-(1-methylpyrazol-3-yl)-3-pyridyl]methyl]pyrrolo[3,2-b]pyridine-5-carboxamide; and], the EC50 under setting [1] is 91.3 nM. In addition, where the note is “Table 2, human M1”, the Emax amounted to 70.8%.

As for `O=C(NCC1CCO1)c1cc(Cc2ccc(-c3nccs3)cc2)c2sccc2n1` (centres unmarked) [Compound 382, N-(oxetan-2-ylmethyl)-7-[(4-thiazol-2-ylphenyl)methyl]thieno[3,2-b]pyridine-5-carboxamide], the EC50 under setting [1] is 386 nM. Also, the Emax (Table 2, human M1) was determined as 56.6%.

`Cn1ccc(-c2ccc(Cc3cc(C(=O)NC4CCOCC4)nc4ccsc34)cn2)n1` [Compound 350, 7-[[6-(1-methylpyrazol-3-yl)-3-pyridyl]methyl]-N-tetrahydropyran-4-yl-thieno[3,2-b]pyridine-5-carboxamide]: under setting [1], the EC50 turned out to be 80.5 nM. Also, the Emax (Table 2, human M1) came to 70.5%. In the same order, the values of `Cc1ccc(Cc2cc(C(=O)NC3CC(F)(F)C3)nc3ccsc23)cn1` [Compound 260, N-(3,3-difluorocyclobutyl)-7-[(6-methyl-3-pyridyl)methyl]thieno[3,2-b]pyridine-5-carboxamide] are 5370 nM and 58.4%. In the same order, the values of `O=C(N[C@H]1CCOC[C@@H]1O)c1cc(Cc2ccc(-n3cccn3)cc2)c2sccc2n1` [Compound 293, N-[(3R,4S)-3-hydroxytetrahydropyran-4-yl]-7-[(4-pyrazol-1-ylphenyl)methyl]thieno[3,2-b]pyridine-5-carboxamide] are 6 nM and 61.6%. In the case of `Cn1ccc(-c2ccc(Cc3cc(C(=O)NC4CCOCC4)nc4ccn(C)c34)cn2)n1` [Compound 503, 1-methyl-7-[[6-(1-methylpyrazol-3-yl)-3-pyridyl]methyl]-N-tetrahydropyran-4-yl-pyrrolop,2-blpyridine-5-carboxamide;], the concentration giving a half-maximal response (EC50) under setting [1] is 1560 nM. For the same compound, where the note is “Table 2, human M1”, the Emax was found to be 66.6%. For `Cc1nc(-c2ccc(Cc3cc(C(=O)NC4CCOCC4)nc4ccsc34)cc2)co1` [Compound 230, 7-[[4-(2-methyloxazol-4-yl)phenyl]methyl]-N-tetrahydropyran-4-yl-thieno[3,2-b]pyridine-5-carboxamide] the same measures were 175 nM and 77.7%.

For the compound `Cc1ccc(Cc2cc(C(=O)NC3C4CC5C[C@H]3CC(O)(C5)C4)nc3c(C)csc23)cn1` (stereo partly drawn) [Compound 109, N-[(1S)-5-hydroxy-2-adamantyl]-3-methyl-7-[(6-methyl-3-pyridyl)methyl]thieno[3,2-b]pyridine-5-carboxamide], under setting [1], the EC50 stood at 3250 nM. Also, the Emax (Table 2, human M1) was found to be 54.6%. With `Cc1ccc(Oc2cc(C(=O)NC(CO)c3ccccc3)nc3ccsc23)cn1` (centres unmarked) [Compound 27, N-(2-hydroxy-1-phenyl-ethyl)-7-[(6-methyl-3-pyridyl)oxy]thieno[3,2-b]pyridine-5-carboxamide], the EC50 under setting [2] was > 10000 nM. For the compound `Cn1cc(-c2ccc(Cc3cc(C(=O)NCC4CCO4)nc4ccsc34)cn2)cn1` (centres unmarked) [Compound 338, 7-[[6-(1-methylpyrazol-4-yl)-3-pyridyl]methyl]-N-(oxetan-2-ylmethyl)thieno[3,2-b]pyridine-5-carboxamide], the concentration for a half-maximal effect (EC50) under setting [1] is 84.9 nM. Further, the Emax (Table 2, human M1) amounted to 93.3%.

For the compound `Cn1cc(-c2ccc(Cc3cc(C(=O)NC4CCCOC4)nc4ccsc34)cc2)nn1` (centres unmarked) [Compound 152, 7-[[4-(1-methyltriazol-4-yl)phenyl]methyl]-N-tetrahydropyran-3-yl-thieno[3,2-b]pyridine-5-carboxamide], the EC50 under setting [1] came to 272 nM. Also, where the note is “Table 2, human M1”, the maximal response (Emax) worked out at 92.3%. In the same order, the values of `Cn1ccc2nc(C(=O)NC3COC3)cc(Cc3ccc(-c4cscn4)cc3)c21` [Compound 467, 1-methyl-N-(oxetan-3-yl)-7-[(4-thiazol-4-ylphenyl)methyl]pyrrolo[3,2-b]pyridine-5-carboxamide] are 2970 nM and 61.2%. In the same order, the values of `Cc1ncc(Cc2cc(C(=O)N[C@@H]3COCC[C@H]3O)nc3ccsc23)s1` [Compound 138, N-[(3R,4R)-4-hydroxytetrahydropyran-3-yl]-7-[(2-methylthiazol-5-yl)methyl]thieno[3,2-b]pyridine-5-carboxamide] are > 10000 nM and 74.3%. Regarding `Cc1ccc(Cc2cc(C(=O)N[C@H]3CCCC[C@@H]3O)nc3ccsc23)cn1` [Compound 1, N-((1S,2S)-2-Hydroxycyclohexyl)-7-((6-methylpyridin-3-yl)methyl)thieno[3,2-b]pyridine-5-carboxamide], the EC50 worked out at 87 nM. Regarding `Cc1cc2nc(C(=O)NC3CCOCC3)cc(Cc3ccc(-n4cccn4)cc3)c2s1` [Compound 239, 2-methyl-7-[(4-pyrazol-1-ylphenyl)methyl]-N-tetrahydropyran-4-yl-thieno[3,2-b]pyridine-5-carboxamide], the EC50 under setting [1] was determined as 3080 nM. Also, the Emax (Table 2, human M1) worked out at 81.5%. For `CC(C)(C#N)NC(=O)c1cc(Cc2ccc(-n3cccn3)cc2)c2sccc2n1` [Compound 283, N-(1-cyano-1-methyl-ethyl)-7-[(4-pyrazol-1-ylphenyl)methyl]thieno[3,2-b]pyridine-5-carboxamide] the same measures were > 10000 nM and 43.1%.

Turning to `Cc1ccc(Oc2cc(C(=O)NCC(C)(C)O)nc3ccsc23)cn1` [Compound 32, N-(2-hydroxy-2-methyl-propyl)-7-[(6-methyl-3-pyridyl)oxy]thieno[3,2-b]pyridine-5-carboxamide], under setting [2], the EC50 is > 10000 nM. As for `Cc1ccc(Cc2cc(C(=O)NC3CCCCNC3=O)nc3c(C)csc23)cn1` (centres unmarked) [Compound 111, 3-methyl-7-[(6-methyl-3-pyridyl)methyl]-N-(2-oxoazepan-3-yl)thieno[3,2-b]pyridine-5-carboxamide], the EC50 under setting [1] is 2400 nM. The Emax (Table 2, human M1) came to 72.5%.
